Blank lines part the entries; values can stand above or below the compound they belong to. Square brackets hold non-standard residues; d marks the D form. Ends that are not written are not given here. Peptide text beside a SMILES is read from it. PhLac = O=C(O)[C@@H](O)Cc1ccccc1
Assays:
Glucagon Receptor [1] = target: T1, Glucagon Receptor (Homo sapiens, UniProt P47871); assay: Functional assay, cAMP induction (luciferase reporter, HEK293) at glucagon receptor; format: cell-based; parameters: expressed in transfected cells; host or cells: HEK293
T1 sequence (P47871 26-477): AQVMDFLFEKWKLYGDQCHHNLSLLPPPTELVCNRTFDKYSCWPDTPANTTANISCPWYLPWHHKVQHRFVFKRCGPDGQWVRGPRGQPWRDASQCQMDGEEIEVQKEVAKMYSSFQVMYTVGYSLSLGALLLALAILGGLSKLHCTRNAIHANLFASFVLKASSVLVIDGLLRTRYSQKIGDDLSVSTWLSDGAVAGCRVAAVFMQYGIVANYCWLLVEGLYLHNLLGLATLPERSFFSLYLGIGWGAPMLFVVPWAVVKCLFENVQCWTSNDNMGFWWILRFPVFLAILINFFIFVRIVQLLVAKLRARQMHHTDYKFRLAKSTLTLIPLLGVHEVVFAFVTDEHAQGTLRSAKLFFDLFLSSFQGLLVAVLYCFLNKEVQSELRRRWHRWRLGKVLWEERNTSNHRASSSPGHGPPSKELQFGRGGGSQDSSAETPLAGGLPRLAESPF

[2] = Glucagon solubility assay; settings: Table 10
[3] = pH 7
Glucagon Receptor [4] = target: T1, Glucagon Receptor; assay: cAMP inhibition: antagonism of glucagon-induced cAMP at glucagon receptor; format: cell-based; parameters: expressed in transfected cells; host or cells: HEK293
GLP-1 Receptor = GLP-1 Receptor (Homo sapiens, UniProt P43220); assay: Functional assay, cAMP induction (luciferase reporter, HEK293) at GLP-1 receptor; format: cell-based
Chain of GLP-1 Receptor (P43220 24-463): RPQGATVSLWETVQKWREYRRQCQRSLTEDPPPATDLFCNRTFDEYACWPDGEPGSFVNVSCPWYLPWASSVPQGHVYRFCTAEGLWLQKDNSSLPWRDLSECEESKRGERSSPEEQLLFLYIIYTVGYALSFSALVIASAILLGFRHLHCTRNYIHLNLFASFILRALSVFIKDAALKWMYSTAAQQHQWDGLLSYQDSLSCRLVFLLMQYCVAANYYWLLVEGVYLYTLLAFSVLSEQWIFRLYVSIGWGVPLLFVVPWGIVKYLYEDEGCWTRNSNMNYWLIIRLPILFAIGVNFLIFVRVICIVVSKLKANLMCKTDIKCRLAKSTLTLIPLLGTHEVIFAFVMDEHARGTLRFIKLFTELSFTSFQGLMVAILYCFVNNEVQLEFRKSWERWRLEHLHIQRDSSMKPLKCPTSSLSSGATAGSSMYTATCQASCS

Glucagon Receptor [5] = target: T1, Glucagon Receptor; assay: Glucagon receptor binding assay (scintillation proximity competition binding); settings: read-out: IC50 (nM) (Receptor binding); Table 11; ND: not detected

EC50 (Glucagon Receptor [1]; read-out: cAMP Induction Glucagon Receptor EC50, Table 3, pegylated analogs): 0.1 ± 0.05 nM
Compound: Glucagon Cys^24 maleimido, PEG-3.4K-dimer [Glucagon C24 Dimer]

Solubility (%, pH 6-8) [2]: 11%
Compound: CSCC[C@H](NC(=O)[C@H](CC(C)C)NC(=O)[C@H](Cc1c[nH]c2ccccc12)NC(=O)[C@H](CCC(N)=O)NC(=O)[C@@H](NC(=O)[C@H](Cc1ccccc1)NC(=O)[C@H](CC(=O)O)NC(=O)[C@H](CCC(N)=O)NC(=O)[C@H](C)NC(=O)[C@H](CCCNC(=N)N)NC(=O)[C@H](CCCNC(=N)N)NC(=O)[C@H](CO)NC(=O)[C@H](CC(=O)O)NC(=O)[C@H](CC(C)C)NC(=O)[C@H](Cc1ccc(O)cc1)NC(=O)[C@H](CCCCN)NC(=O)[C@H](CO)NC(=O)[C@H](Cc1ccc(O)cc1)NC(=O)[C@H](CC(=O)O)NC(=O)[C@H](CO)NC(=O)[C@@H](NC(=O)[C@@H](O)Cc1ccccc1)[C@@H](C)O)C(C)C)C(=O)N[C@@H](CC(N)=O)C(=O)N[C@H](C(N)=O)[C@@H](C)O [[PLA^6, D^9]Glucagon(aa6-29)-NH2] (H-[PhLac]TSDYSKYLDSRRAQDFVQWLMNT-NH2)

Compound: Glucagon Cys^17 Mal-PEG-5K [Glucagon, Cys17PEG5K]
Percent Soluble [3]: 94%

glucagon antagonism, in words (Glucagon Receptor [4]): no meaningful glucagon antagonism
Glucagon IC50 (nM) (Glucagon Receptor [4]; Table 14): agonist
Glucagon antagonism IC50 (nM, inhibit 0.8 nM glucagon) (Glucagon Receptor [4]; Table 19): weak agonist
glucagon agonism, in words (Glucagon Receptor [1]): weak, but full glucagon agonism
GLP-1 agonism, in words (GLP-1 Receptor): very potent GLP-1 agonism
Compound: HSQGTFTSDYARYLDARRAREFIKWLVRGRG-NH2 [ANK2 (Bayer peptide), reference compound]

IC50 (Glucagon Receptor [5]): 12.3 ± 0.13 nM
IC50 (Glucagon Receptor [4]; Glucagon antagonism IC50(nM, inhibit 0.5nM G), Table 25): 23.7 ± 4.16 nM
Solubility (%, pH 6-8) [2]: 11%
GLP-1 agonism EC50(nM) (GLP-1 Receptor; Table 25): No agonism
Compound: CSCC[C@H](NC(=O)[C@H](CC(C)C)NC(=O)[C@H](Cc1c[nH]c2ccccc12)NC(=O)[C@H](CCC(N)=O)NC(=O)[C@@H](NC(=O)[C@H](Cc1ccccc1)NC(=O)[C@H](CC(=O)O)NC(=O)[C@H](CCC(N)=O)NC(=O)[C@H](C)NC(=O)[C@H](CCCNC(=N)N)NC(=O)[C@H](CCCNC(=N)N)NC(=O)[C@H](CO)NC(=O)[C@H](CC(=O)O)NC(=O)[C@H](CC(C)C)NC(=O)[C@H](Cc1ccc(O)cc1)NC(=O)[C@H](CCCCN)NC(=O)[C@H](CO)NC(=O)[C@H](Cc1ccc(O)cc1)NC(=O)[C@H](CCC(=O)O)NC(=O)[C@H](CO)NC(=O)[C@@H](NC(=O)[C@@H](O)Cc1ccccc1)[C@@H](C)O)C(C)C)C(=O)N[C@@H](CC(N)=O)C(=O)N[C@H](C(N)=O)[C@@H](C)O [[PLA^6, E^9]Glucagon(aa6-29)-NH2] (H-[PhLac]TSEYSKYLDSRRAQDFVQWLMNT-NH2)

Source: patent US8980830B2 (priority 2007, dated 2015)
